Data taken from patent US12058986B2, “Method for generating a genetically modified pig with inactivated porcine endogenous retrovirus (PERV) elements” (eGenesis, Inc., priority 2017, dated 2024).

B1: SV40 large T antigen: transiently over-expressed inhibitor of both p53 and Rb pathways (protein, UniProt P03070 1-708, looked up)
Large T antigen: MDKVLNREESLQLMDLLGLERSAWGNIPLMRKAYLKKCKEFHPDKGGDEEKMKKMNTLYKKMEDGVKYAHQPDFGGFWDATEIPTYGTDEWEQWWNAFNEENLFCSEEMPSSDDEATADSQHSTPPKKKRKVEDPKDFPSELLSFLSHAVFSNRTLACFAIYTTKEKAALLYKKIMEKYSVTFISRHNSYNHNILFFLTPHRHRVSAINNYAQKLCTFSFLICKGVNKEYLMYSALTRDPFSVIEESLPGGLKEHDFNPEEAEETKQVSWKLVTEYAMETKCDDVLLLLGMYLEFQYSFEMCLKCIKKEQPSHYKYHEKHYANAAIFADSKNQKTICQQAVDTVLAKKRVDSLQLTREQMLTNRFNDLLDRMDIMFGSTGSADIEEWMAGVAWLHCLLPKMDSVVYDFLKCMVYNIPKKRYWLFKGPIDSGKTTLAAALLELCGGKALNVNLPLDRLNFELGVAIDQFLVVFEDVKGTGGESRDLPSGQGINNLDNLRDYLDGSVKVNLEKKHLNKRTQIFPPGIVTMNEYSVPKTLQARFVKQIDFRPKDYLKHCLERSEFLLEKRIIQSGIALLLMLIWYRPVAEFAQSIQSRIVEWKERLDKEFSLSVYQKMKFNVAMGIGVLDWLRNSDDDDEDSQENADKNEDGGEKNMEDSGHETGIDSQSQGSFQAPQSSQSVHDHNQPYHICRGFTCFKKPPTPPPEPET

Legend:
[1] = test system: PERV pol gene; assay: PERV pol targeting (editing) efficiency in FFF3 cells, deep sequencing of PERV pol loci; assay type: cell-based, porcine; conditions: for average targeting efficiency (PERV editing efficiency) of FFF3 populations: applied during genetic modification with CRISPR-Cas9
Procedure: Similar to the procedure previously described by Yang et al, 2015, Science, 80:350, a DNA fragment encoding U6-gRNA1-U6-gRNA2 (Genewiz) was synthesized and incorporated into a previously constructed PiggyBac-cas9 plasmid. To establish the FFF3 cell lines with PiggyBac-Cas9/2gRNAs integration, 5×10^5 FFF3 cells were transfected with 16 μg PiggyBac-Cas9/2gRNAs plasmid and 4 μg Super PiggyBac Transposase plasmid (System Biosciences) using the Neon transfection system according to the instructions in the commercial kits (Thermo Fisher Scientific). To select the cells carrying the integrated construct, 2 μg/mL puromycin was applied to the transfected cells. Based on the negative control, in which puromycin was applied to wild type FFF3 cells, it was determined that the puromycin selection was completed in 4 days. The FFF3-PiggyBac cell line was maintained with 2 μg/mL puromycin hereafter and a 2 μg/ml doxycycline was applied to induce Cas9 expression of the doxycycline-inducible FFF3-PiggyBac cell line.
To avoid the Cas9-consistent expression in the FFF3 cell line, PiggyBac-Cas9/2gRNAs excision from the FFF3 genome was conducted by transfecting 5×10^5 cells with 3 μg PiggyBac Excision-Only Transposase vector using Lipofectamine 2000 reagent. The PiggyBac-Cas9/2gRNAs-excised FFF3 cells were then single-cell sorted into 96-well plates for clone growth and genotyping.
First, puromycin selection followed by PiggyBac excision was conducted on the FFF3, PiggyBac-Cas9/2gRNA cell line. Then the cells were single-cell sorted into both 96-well PCR plates for direct genotyping and 96-well cell culture plates for colony growth.
To genotype single FF cells without clonal expansion, the PERV loci from sorted single cells were directly amplified according to a previously reported single-cell genotyping protocol. Briefly, the single cells were sorted into 96-well PCR plates with each well carrying a 5 μl lysis mixture, which contained 0.51 μl 10×KAPA express extract buffer (KAPA Biosystems), 0.1 μl of 1 U/μl KAPA Express Extract Enzyme and 4.6 μl water. The lysis reaction was incubated at 75° C. for 15 min and the reaction was subsequently inactivated at 95° C. for 5 min. All reactions were then added to 20 μl PCR reactions containing 1×KAPA 2G fast (KAPA Biosystems), 0.2 μM PERV Illumina primers (Methods Table 2). Reactions were incubated at 95° C. for 3 min followed by 25 cycles of 95° C., 20 s; 59° C., 20 s and 72° C., 10 s. To add the Illumina sequence adaptors, 3 μl of reaction products were then added to 20 μl of PCR mix containing 1×KAPA 2G fast(KAPA Biosystems) and 0.3 μM primers carrying Illumina sequence adaptors. Reactions were incubated at 95° C. for 3 min followed by 10 cycles of 95° C., 20 s; 59° C., 20 s and 72° C., 10 s. PCR products were checked on EX 2% gels (Invitrogen), followed by the recovery of 300-400 bp products from the gel. These products were then mixed at roughly the same amount, purified (QIAquick Gel Extraction Kit), and sequenced with MiSeq Personal Sequencer (Illumina). Deep sequencing data was analyzed, and the PERV editing efficiency using CRISPR-GA was determined (Denner et al., 2016, Viruses, 8:215).
As previously described in Yang et al. (6), a custom pipeline was built to estimate the efficiency of PERV inactivation. Briefly, the pol gene was amplified and sequenced via Illumina Next Generation Sequencing using PE250 or PE300. First, the two overlapping reads using PEAR (15) were combined and mapped to the reference region using BLAT. After mapping, the reads were grouped into sets containing specific combinations of haplotypes, and indel types. Read sets with representation lower than 0.5% of the total number of mapped reads were discarded. Finally, the mapping output was parsed to call the different insertions and deletions, as described in Güell et al (16).

[2] = test system: FFF3 cells
[3] = clones grown from sorted single cells

Row | Molecule | average targeting efficiency (PERV editing efficiency) of FFF3 populations [1] | PERV targeting efficiency among treatments with different dosages ([1]; FFF3 cells, seven days of treatment) | cytotoxicity [2] | increase of the ratio of >80% PERV-ko clones compared with the untreated group [1, 3] | increase of the ratio of >90% PERV-ko clones compared with the untreated group [1, 3]
1 | Cc1ccc(C(=O)Cn2c3c(sc2=N)CCCC3)cc1 [PFTα, pifithrin alpha, reference compound] | did not increased | – | – | – | –
2 | Bcl-2: an apoptosis inhibitor, over-expressed | did not increase | No significant difference | Dose-dependent cytotoxicity | – | –
3 | basic fibroblast growth factor [bFGF] | did not increased | – | – | – | –
4 | B1 | increased | – | – | 3.75 folds | 5.06 folds
